What was measured:
[1] = target: T1, AgamOr29 + AgamOrco (Anopheles gambiae, UniProt A0A1S4H074); assay: two-electrode voltage clamp, Xenopus oocytes; format: cell-based
T1 sequence (A0A1S4H074 1-384): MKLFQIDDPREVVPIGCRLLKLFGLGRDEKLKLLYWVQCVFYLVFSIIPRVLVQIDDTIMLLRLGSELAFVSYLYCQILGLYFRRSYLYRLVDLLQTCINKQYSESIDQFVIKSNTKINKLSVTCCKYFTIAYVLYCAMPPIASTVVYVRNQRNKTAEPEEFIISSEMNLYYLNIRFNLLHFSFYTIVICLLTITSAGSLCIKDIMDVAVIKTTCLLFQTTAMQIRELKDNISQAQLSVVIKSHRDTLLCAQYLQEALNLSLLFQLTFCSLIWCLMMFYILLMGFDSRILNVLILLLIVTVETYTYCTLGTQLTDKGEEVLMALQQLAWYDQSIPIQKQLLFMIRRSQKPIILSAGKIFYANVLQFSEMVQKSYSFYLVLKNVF
T1 sequence (Q7QCC7 1-478 partner): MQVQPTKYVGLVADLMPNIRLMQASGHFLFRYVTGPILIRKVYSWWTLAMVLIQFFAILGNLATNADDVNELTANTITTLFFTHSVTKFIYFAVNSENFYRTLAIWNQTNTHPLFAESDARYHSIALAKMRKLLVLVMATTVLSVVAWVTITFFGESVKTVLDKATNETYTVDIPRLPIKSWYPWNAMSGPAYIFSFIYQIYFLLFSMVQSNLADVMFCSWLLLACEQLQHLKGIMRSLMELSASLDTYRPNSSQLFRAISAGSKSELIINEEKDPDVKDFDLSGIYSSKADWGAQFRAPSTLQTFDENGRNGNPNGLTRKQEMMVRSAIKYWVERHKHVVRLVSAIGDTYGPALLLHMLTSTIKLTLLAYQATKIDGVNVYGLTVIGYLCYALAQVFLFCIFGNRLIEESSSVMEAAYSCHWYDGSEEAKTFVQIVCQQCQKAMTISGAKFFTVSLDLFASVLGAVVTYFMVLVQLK

[2] = target: T2, AgamOr53 + AgamOrco (Anopheles gambiae, UniProt A0ABK8FS74); assay: two-electrode voltage clamp, Xenopus oocytes; format: cell-based
T2 sequence (A0ABK8FS74 1-384): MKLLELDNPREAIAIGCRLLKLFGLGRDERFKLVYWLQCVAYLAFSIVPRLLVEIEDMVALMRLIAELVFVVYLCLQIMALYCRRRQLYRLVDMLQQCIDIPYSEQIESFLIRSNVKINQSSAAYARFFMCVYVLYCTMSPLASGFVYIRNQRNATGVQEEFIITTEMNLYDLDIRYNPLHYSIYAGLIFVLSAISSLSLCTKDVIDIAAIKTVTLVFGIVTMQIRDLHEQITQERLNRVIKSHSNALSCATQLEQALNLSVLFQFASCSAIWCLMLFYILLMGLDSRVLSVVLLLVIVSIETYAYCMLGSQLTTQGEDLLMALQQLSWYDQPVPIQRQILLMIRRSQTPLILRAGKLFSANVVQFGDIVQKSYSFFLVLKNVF
T2 sequence (Q7QCC7 1-478 partner): T1 sequence (Q7QCC7 1-478 partner)

EC50 [1]	EC50 [2]	SMILES
14.7 µM	14.9 µM	C=C[C@](C)(O)CCC=C(C)C [(R)-(–)-linalool]
7.1 µM	19.1 µM	C=C[C@@](C)(O)CCC=C(C)C [(S)-(+)-linalool]

Reference: article doi:10.1101/2022.09.19.508609v1 (biorxiv, 2022)
